“And” between values parts separate entries of the source, which are not always exact repeats. Identical values can stand only once.
What was measured:
Test in all cases: biochemical
TGFBR1 = target: T1, TGFBR1 (Homo sapiens, UniProt P36897)
T1 sequence (P36897 1-503): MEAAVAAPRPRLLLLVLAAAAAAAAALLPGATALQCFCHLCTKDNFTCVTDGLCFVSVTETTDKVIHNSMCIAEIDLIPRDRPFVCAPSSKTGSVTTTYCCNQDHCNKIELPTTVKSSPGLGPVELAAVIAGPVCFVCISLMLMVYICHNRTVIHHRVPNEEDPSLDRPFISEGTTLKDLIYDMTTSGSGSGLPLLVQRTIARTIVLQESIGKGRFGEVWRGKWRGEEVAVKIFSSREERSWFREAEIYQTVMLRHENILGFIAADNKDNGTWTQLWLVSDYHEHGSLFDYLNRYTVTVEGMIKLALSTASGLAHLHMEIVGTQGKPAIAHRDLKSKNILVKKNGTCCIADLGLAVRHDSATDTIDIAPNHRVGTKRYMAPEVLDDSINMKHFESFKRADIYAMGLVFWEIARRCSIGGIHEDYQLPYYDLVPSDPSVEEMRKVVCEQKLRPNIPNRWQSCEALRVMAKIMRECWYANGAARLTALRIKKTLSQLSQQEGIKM

TAOK3 = target: T2, TAOK3 (Homo sapiens, UniProt Q9H2K8)
T2 sequence (Q9H2K8 1-898): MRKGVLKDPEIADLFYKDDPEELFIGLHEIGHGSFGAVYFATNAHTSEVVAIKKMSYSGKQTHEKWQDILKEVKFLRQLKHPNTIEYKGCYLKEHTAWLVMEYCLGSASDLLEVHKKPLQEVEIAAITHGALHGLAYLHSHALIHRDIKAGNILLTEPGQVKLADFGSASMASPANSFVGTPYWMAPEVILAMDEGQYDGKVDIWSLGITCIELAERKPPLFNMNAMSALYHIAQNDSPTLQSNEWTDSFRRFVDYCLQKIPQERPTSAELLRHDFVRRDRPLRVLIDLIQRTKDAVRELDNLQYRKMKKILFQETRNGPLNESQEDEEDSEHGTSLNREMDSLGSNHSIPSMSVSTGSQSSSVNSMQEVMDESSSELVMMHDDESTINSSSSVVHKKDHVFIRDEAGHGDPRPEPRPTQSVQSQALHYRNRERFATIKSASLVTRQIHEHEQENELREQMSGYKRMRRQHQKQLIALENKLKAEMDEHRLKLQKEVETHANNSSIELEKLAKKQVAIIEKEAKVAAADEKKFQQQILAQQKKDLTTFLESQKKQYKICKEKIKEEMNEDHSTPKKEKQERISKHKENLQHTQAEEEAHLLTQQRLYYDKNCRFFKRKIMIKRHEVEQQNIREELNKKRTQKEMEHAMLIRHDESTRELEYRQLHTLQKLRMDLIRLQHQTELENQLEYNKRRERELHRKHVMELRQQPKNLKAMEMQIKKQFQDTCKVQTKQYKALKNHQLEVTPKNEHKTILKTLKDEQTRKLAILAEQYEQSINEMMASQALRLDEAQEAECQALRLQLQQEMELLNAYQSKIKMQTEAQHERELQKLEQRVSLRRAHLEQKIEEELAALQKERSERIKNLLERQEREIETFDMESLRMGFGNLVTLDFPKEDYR

PIP4K2B = target: T3, PIP4K2B (Homo sapiens, UniProt P78356)
T3 sequence (P78356 1-416): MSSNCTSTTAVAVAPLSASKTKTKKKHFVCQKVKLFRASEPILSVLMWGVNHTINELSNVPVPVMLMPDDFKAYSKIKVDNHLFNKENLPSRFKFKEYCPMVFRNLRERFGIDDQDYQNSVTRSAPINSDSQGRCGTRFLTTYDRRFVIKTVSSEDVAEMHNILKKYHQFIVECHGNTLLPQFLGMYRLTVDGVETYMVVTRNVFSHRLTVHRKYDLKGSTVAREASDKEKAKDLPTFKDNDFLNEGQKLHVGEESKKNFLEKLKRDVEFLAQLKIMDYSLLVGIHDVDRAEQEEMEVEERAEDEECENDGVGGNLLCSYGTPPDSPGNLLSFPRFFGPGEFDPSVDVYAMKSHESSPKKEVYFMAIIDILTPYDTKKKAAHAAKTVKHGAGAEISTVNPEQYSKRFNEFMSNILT

MAP3K3 = target: T4, MAP3K3 (Homo sapiens, UniProt Q99759)
T4 sequence (Q99759 1-626): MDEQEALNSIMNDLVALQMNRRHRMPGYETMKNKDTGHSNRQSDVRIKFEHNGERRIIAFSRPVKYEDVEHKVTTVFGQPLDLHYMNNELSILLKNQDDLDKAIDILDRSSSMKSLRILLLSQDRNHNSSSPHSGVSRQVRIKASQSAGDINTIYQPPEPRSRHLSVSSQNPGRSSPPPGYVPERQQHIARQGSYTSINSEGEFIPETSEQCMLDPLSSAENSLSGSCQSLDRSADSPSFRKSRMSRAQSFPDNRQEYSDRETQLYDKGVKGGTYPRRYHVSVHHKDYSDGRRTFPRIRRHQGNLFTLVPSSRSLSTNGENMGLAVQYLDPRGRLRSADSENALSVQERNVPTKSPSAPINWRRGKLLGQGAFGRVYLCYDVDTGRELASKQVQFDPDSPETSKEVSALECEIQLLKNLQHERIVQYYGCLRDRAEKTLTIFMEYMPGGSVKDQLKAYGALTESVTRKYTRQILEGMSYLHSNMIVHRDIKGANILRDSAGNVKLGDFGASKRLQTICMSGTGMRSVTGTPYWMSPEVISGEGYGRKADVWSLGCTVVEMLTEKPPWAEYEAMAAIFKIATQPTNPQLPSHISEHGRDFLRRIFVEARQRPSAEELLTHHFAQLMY

LIMK2 = LIMK2 (Homo sapiens, UniProt P53671)
Chain of LIMK2 (P53671 whole entry): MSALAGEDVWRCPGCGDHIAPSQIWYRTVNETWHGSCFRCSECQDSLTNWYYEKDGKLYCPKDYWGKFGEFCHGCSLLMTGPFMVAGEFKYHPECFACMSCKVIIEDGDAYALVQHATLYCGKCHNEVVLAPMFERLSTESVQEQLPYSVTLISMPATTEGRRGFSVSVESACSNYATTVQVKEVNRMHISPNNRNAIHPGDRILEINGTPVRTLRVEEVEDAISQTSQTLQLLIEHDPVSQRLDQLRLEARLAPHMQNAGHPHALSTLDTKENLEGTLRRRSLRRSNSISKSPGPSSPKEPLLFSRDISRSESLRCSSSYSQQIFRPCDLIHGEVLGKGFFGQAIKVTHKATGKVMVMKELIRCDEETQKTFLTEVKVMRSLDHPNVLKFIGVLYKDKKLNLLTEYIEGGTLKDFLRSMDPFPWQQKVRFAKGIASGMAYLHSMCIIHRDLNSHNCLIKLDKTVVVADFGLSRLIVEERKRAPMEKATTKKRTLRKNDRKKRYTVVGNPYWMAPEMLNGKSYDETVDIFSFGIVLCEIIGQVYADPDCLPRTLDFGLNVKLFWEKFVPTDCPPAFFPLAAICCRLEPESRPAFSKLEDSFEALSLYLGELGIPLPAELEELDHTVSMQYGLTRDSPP

IRAK1 = IRAK1 (Homo sapiens, UniProt P51617)
Chain of IRAK1 (P51617 whole entry): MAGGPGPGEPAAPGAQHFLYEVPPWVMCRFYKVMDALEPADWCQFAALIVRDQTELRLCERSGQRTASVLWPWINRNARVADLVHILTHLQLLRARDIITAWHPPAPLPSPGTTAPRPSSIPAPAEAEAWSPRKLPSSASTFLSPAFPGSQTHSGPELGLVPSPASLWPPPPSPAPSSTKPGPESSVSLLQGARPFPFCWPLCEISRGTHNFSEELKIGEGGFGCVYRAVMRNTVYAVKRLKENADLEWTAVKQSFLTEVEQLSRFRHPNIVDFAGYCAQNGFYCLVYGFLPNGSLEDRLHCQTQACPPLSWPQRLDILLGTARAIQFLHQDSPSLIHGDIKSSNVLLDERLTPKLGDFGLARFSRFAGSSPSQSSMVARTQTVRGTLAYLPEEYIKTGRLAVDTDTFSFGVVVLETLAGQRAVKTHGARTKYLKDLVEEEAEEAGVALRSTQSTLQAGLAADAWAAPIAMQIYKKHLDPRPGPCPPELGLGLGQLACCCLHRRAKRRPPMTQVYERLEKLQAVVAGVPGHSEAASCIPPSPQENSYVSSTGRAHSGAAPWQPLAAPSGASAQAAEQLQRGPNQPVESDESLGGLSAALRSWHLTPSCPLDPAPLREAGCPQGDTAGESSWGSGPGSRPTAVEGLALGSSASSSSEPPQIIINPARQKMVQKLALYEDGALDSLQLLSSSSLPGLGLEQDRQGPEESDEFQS

| SMILES | IC50 (TGFBR1) | IC50 (TAOK3) | IC50 (PIP4K2B) | IC50 (MAP3K3) | IC50 (LIMK2) [µM] | IC50 (IRAK1) |
| --- | --- | --- | --- | --- | --- | --- |
| CN(C)CC(O)COc1ccc(Nc2ncc([N+](=O)[O-])c(Nc3ccccc3O)n2)cc1.O=C(O)C(F)(F)F (stereo not drawn) [TCMDC-141399] | > 20 µM | > 20 µM | 0.97 µM | 6 µM and > 20 µM | > 20 | – |
| Cl.NCC1(c2nc(-c3ccc(Cl)c(O)c3)c(-c3ccncc3)[nH]2)CCCCC1 [TCMDC-141154] | 0.095 µM and 0.14 µM | 1.8 µM and 0.91 µM | – | – | > 20 | > 20 µM |
| CN1CCN(c2ccc(Nc3ncc(C#N)c(Nc4ccccc4C(N)=O)n3)cc2)CC1.Cl [TCMDC-134116] | – | – | 1.6 µM and 1 µM | 0.31 µM | – | 0.16 µM and 0.14 µM |
